Patent US11000033B2, “Ketone or oxime compound, and herbicide” (NISSAN CHEMICAL CORPORATION, priority 2014, dated 2021)

Tests used:
Format in all cases: in vivo
soybean = experiment: Test Example 5: effect on crop by foliage application, plastic box (symbol d); conditions: 320 g/ha, 3 weeks after application
How it was run: (§1)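 In a plastic box 7 cm deep filled with sterilized diluvial soil, seeds of crops and weeds such as Digitaria ciliaris, Avena fatua and Amaranthus retroflexus are sown in spots and covered with about 1.5 cm of soil before greenhouse growth at 25–30° C.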

Monochoria vaginalis [1] = experiment: Test Example 1: herbicidal activity, application before weed generation in submerged conditions (symbol C); conditions: application herbicide amount 320 g/ha
How it was run: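 Greenhouse growth at 25–30 °C lasted 3 weeks after treatment, when each weed was graded 0–5 by herbicidal ratio. Treatment was a diluted emulsion applied to the water surface of 4 cm-submerged alluvial soil on the sowing day.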

Digitaria ciliaris = experiment: Test Example 4: herbicidal effect by soil treatment (symbol F); conditions: application herbicide amount 320 g/ha
How it was run: (§2)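 Seeds were sown in sterilized diluvial soil, covered with about 1.5 cm of soil, and the soil surface was sprayed with a water-diluted emulsion of the compound at a predetermined rate. Plants grew in a greenhouse at 25° C. to 30° C.; effects were scored visually 3 weeks after application.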

rapeseed = experiment: Test Example 4: effect on crop by soil treatment (symbol g); conditions: application herbicide amount 320 g/ha
How it was run: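 Sterilized diluvial soil, spot sowing, ~1.5 cm soil cover; greenhouse 25–30° C.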

[2] = tested on: Echinochloa crus-galli var. crus-galli; experiment: Test Example 4: herbicidal effect by soil treatment (symbol H); conditions: application herbicide amount 320 g/ha
How it was run: as §2

rice plant = experiment: Test Example 5: effect on crop by foliage application, plastic box (symbol b); conditions: 320 g/ha, 3 weeks after application
How it was run: as §1

[3] = tested on: Echinochloa oryzacola Vasing.; experiment: Test Example 2: herbicidal activity, application during weed generation in submerged conditions (symbol A); conditions: Table 23; application herbicide amount 320 g/ha; grade 0-5 by criteria of Test Example 1
How it was run: (§3)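 Submerged alluvial soil (4 cm) sown with mixed seed; greenhouse 25–30° C. 1–2 leaf: diluted emulsion onto water surface, preset dose. Visual score, 3 wk.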

Apera spica-venti = experiment: Test Example 4: herbicidal effect by soil treatment (symbol L); conditions: application herbicide amount 320 g/ha
How it was run: as §2

Monochoria vaginalis [4] = experiment: Test Example 2: herbicidal activity, application during weed generation in submerged conditions (symbol C); conditions: Table 23; application herbicide amount 320 g/ha; grade 0-5 by criteria of Test Example 1
How it was run: as §3

corn [5] = experiment: Test Example 5: effect on crop by foliage application, plastic box (symbol c); conditions: 320 g/ha, 3 weeks after application
How it was run: as §1

Abutilon theophrasti = experiment: Test Example 4: herbicidal effect by soil treatment (symbol M); conditions: application herbicide amount 320 g/ha
How it was run: as §2

Avena fatua = experiment: Test Example 4: herbicidal effect by soil treatment (symbol I); conditions: application herbicide amount 320 g/ha
How it was run: as §2

Chenopodium album = experiment: Test Example 4: herbicidal effect by soil treatment (symbol O); conditions: application herbicide amount 320 g/ha
How it was run: as §2

Lolium multiflorum Lam. = experiment: Test Example 5: herbicidal effect by foliage application, plastic box (symbol K); conditions: 320 g/ha, 3 weeks after application
How it was run: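 Leaf-applied emulsion, water-diluted to a preset herbicide dose, on two-week-old seedlings raised in a 25° C. to 30° C. greenhouse; injury rated at 3 weeks using earlier criteria.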

corn [6] = experiment: Test Example 4: effect on crop by soil treatment (symbol c); conditions: application herbicide amount 320 g/ha
How it was run: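 Diluvial soil (sterilized) in boxes; seeds placed spot-wise alongside weed species; ~1.5 cm covering soil. Greenhouse, 25–30° C.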

Scirpus juncoides = experiment: Test Example 2: herbicidal activity, application during weed generation in submerged conditions (symbol B); conditions: Table 23; application herbicide amount 320 g/ha; grade 0-5 by criteria of Test Example 1
How it was run: as §3

CCOC(=O)C(CC)(C(C)=O)C1CC(O)=C(c2c(C)cc(C)cc2C)C1=O (centres unmarked) [2-012]
d: soybean, effect on crop grade (soybean): 0 (Herbicidal ratio of 5% or lower (almost no effect)) | Herbicidal effect grade, C: Monochoria vaginalis (Monochoria vaginalis [1]): 0 (Herbicidal ratio of 5% or lower (almost no effect)) | F: Digitaria ciliaris, herbicidal effect grade (Digitaria ciliaris): 0 (Herbicidal ratio of 5% or lower (almost no effect)) | g: rapeseed, effect on crop grade (rapeseed): 0 (Herbicidal ratio of 5% or lower (almost no effect)) | H: Echinochloa crus-galli var. crus-galli, herbicidal effect grade [2]: 0 (Herbicidal ratio of 5% or lower (almost no effect)) | b: directly sowed rice plant, effect on crop grade (rice plant): 4 (Herbicidal ratio of 70% or higher and lower than 90%) | Herbicidal effect grade, A: Echinochloa oryzacola Vasing. [3]: 0 (Herbicidal ratio of 5% or lower (almost no effect)) | L: Apera spica-venti, herbicidal effect grade (Apera spica-venti): 0 (Herbicidal ratio of 5% or lower (almost no effect)) | Herbicidal effect grade, C: Monochoria vaginalis (Monochoria vaginalis [4]): 0 (Herbicidal ratio of 5% or lower (almost no effect)) | c: corn, effect on crop grade (corn [5]): 0 (Herbicidal ratio of 5% or lower (almost no effect)) | M: Abutilon theophrasti, herbicidal effect grade (Abutilon theophrasti): 0 (Herbicidal ratio of 5% or lower (almost no effect)) | I: Avena fatua, herbicidal effect grade (Avena fatua): 0 (Herbicidal ratio of 5% or lower (almost no effect)) | O: Chenopodium album, herbicidal effect grade (Chenopodium album): 0 (Herbicidal ratio of 5% or lower (almost no effect)) | K: Lolium multiflorum Lam., herbicidal effect grade (Lolium multiflorum Lam.): 3 (Herbicidal ratio of 40% or higher and lower than 70%) | c: corn, effect on crop grade (corn [6]): 0 (Herbicidal ratio of 5% or lower (almost no effect)) | Herbicidal effect grade, B: Scirpus juncoides (Scirpus juncoides): 0 (Herbicidal ratio of 5% or lower (almost no effect))

CON=C(C)CC1CC(O)=C(c2c(C)cc(C)cc2Br)C1=O (centres unmarked) [6-038]
d: soybean, effect on crop grade (soybean): 4 (Herbicidal ratio of 70% or higher and lower than 90%) | Herbicidal effect grade, C: Monochoria vaginalis (Monochoria vaginalis [1]): 3 (Herbicidal ratio of 40% or higher and lower than 70%) | F: Digitaria ciliaris, herbicidal effect grade (Digitaria ciliaris): 5 (Herbicidal ratio of 90% or more (almost completely withered)) | g: rapeseed, effect on crop grade (rapeseed): 5 (Herbicidal ratio of 90% or more (almost completely withered)) | H: Echinochloa crus-galli var. crus-galli, herbicidal effect grade [2]: 5 (Herbicidal ratio of 90% or more (almost completely withered)) | b: directly sowed rice plant, effect on crop grade (rice plant): 5 (Herbicidal ratio of 90% or more (almost completely withered)) | Herbicidal effect grade, A: Echinochloa oryzacola Vasing. [3]: 4 (Herbicidal ratio of 70% or higher and lower than 90%) | L: Apera spica-venti, herbicidal effect grade (Apera spica-venti): 5 (Herbicidal ratio of 90% or more (almost completely withered)) | Herbicidal effect grade, C: Monochoria vaginalis (Monochoria vaginalis [4]): 1 (Herbicidal ratio of 5% or higher and lower than 20%) | c: corn, effect on crop grade (corn [5]): 5 (Herbicidal ratio of 90% or more (almost completely withered)) | M: Abutilon theophrasti, herbicidal effect grade (Abutilon theophrasti): 5 (Herbicidal ratio of 90% or more (almost completely withered)) | I: Avena fatua, herbicidal effect grade (Avena fatua): 2 (Herbicidal ratio of 20% or higher and lower than 40%) | O: Chenopodium album, herbicidal effect grade (Chenopodium album): 0 (Herbicidal ratio of 5% or lower (almost no effect)) | K: Lolium multiflorum Lam., herbicidal effect grade (Lolium multiflorum Lam.): 5 (Herbicidal ratio of 90% or more (almost completely withered)) | c: corn, effect on crop grade (corn [6]): 5 (Herbicidal ratio of 90% or more (almost completely withered)) | Herbicidal effect grade, B: Scirpus juncoides (Scirpus juncoides): 4 (Herbicidal ratio of 70% or higher and lower than 90%)

CC(=O)CC1CC(OC(=O)C(C)(C)C)=C(c2c(C)cc(C)cc2C)C1=O (centres unmarked) [2-018]
d: soybean, effect on crop grade (soybean): 0 (Herbicidal ratio of 5% or lower (almost no effect)) | Herbicidal effect grade, C: Monochoria vaginalis (Monochoria vaginalis [1]): 1 (Herbicidal ratio of 5% or higher and lower than 20%) | F: Digitaria ciliaris, herbicidal effect grade (Digitaria ciliaris): 5 (Herbicidal ratio of 90% or more (almost completely withered)) | g: rapeseed, effect on crop grade (rapeseed): 3 (Herbicidal ratio of 40% or higher and lower than 70%) | H: Echinochloa crus-galli var. crus-galli, herbicidal effect grade [2]: 5 (Herbicidal ratio of 90% or more (almost completely withered)) | b: directly sowed rice plant, effect on crop grade (rice plant): 2 (Herbicidal ratio of 20% or higher and lower than 40%) | Herbicidal effect grade, A: Echinochloa oryzacola Vasing. [3]: 4 (Herbicidal ratio of 70% or higher and lower than 90%) | L: Apera spica-venti, herbicidal effect grade (Apera spica-venti): 2 (Herbicidal ratio of 20% or higher and lower than 40%) | Herbicidal effect grade, C: Monochoria vaginalis (Monochoria vaginalis [4]): 0 (Herbicidal ratio of 5% or lower (almost no effect)) | c: corn, effect on crop grade (corn [5]): 0 (Herbicidal ratio of 5% or lower (almost no effect)) | M: Abutilon theophrasti, herbicidal effect grade (Abutilon theophrasti): 4 (Herbicidal ratio of 70% or higher and lower than 90%) | I: Avena fatua, herbicidal effect grade (Avena fatua): 0 (Herbicidal ratio of 5% or lower (almost no effect)) | O: Chenopodium album, herbicidal effect grade (Chenopodium album): 0 (Herbicidal ratio of 5% or lower (almost no effect)) | K: Lolium multiflorum Lam., herbicidal effect grade (Lolium multiflorum Lam.): 4 (Herbicidal ratio of 70% or higher and lower than 90%) | c: corn, effect on crop grade (corn [6]): 2 (Herbicidal ratio of 20% or higher and lower than 40%) | Herbicidal effect grade, B: Scirpus juncoides (Scirpus juncoides): 0 (Herbicidal ratio of 5% or lower (almost no effect))

Cc1cc(C)c(C2=C(O)CC(CC(=O)C(C)(C)C)C2=O)c(C)c1 (centres unmarked) [2-022]
d: soybean, effect on crop grade (soybean): 0 (Herbicidal ratio of 5% or lower (almost no effect)) | Herbicidal effect grade, C: Monochoria vaginalis (Monochoria vaginalis [1]): 0 (Herbicidal ratio of 5% or lower (almost no effect)) | F: Digitaria ciliaris, herbicidal effect grade (Digitaria ciliaris): 0 (Herbicidal ratio of 5% or lower (almost no effect)) | g: rapeseed, effect on crop grade (rapeseed): 0 (Herbicidal ratio of 5% or lower (almost no effect)) | H: Echinochloa crus-galli var. crus-galli, herbicidal effect grade [2]: 0 (Herbicidal ratio of 5% or lower (almost no effect)) | b: directly sowed rice plant, effect on crop grade (rice plant): 5 (Herbicidal ratio of 90% or more (almost completely withered)) | Herbicidal effect grade, A: Echinochloa oryzacola Vasing. [3]: 1 (Herbicidal ratio of 5% or higher and lower than 20%) | L: Apera spica-venti, herbicidal effect grade (Apera spica-venti): 0 (Herbicidal ratio of 5% or lower (almost no effect)) | Herbicidal effect grade, C: Monochoria vaginalis (Monochoria vaginalis [4]): 0 (Herbicidal ratio of 5% or lower (almost no effect)) | c: corn, effect on crop grade (corn [5]): 3 (Herbicidal ratio of 40% or higher and lower than 70%) | M: Abutilon theophrasti, herbicidal effect grade (Abutilon theophrasti): 0 (Herbicidal ratio of 5% or lower (almost no effect)) | I: Avena fatua, herbicidal effect grade (Avena fatua): 0 (Herbicidal ratio of 5% or lower (almost no effect)) | O: Chenopodium album, herbicidal effect grade (Chenopodium album): 0 (Herbicidal ratio of 5% or lower (almost no effect)) | K: Lolium multiflorum Lam., herbicidal effect grade (Lolium multiflorum Lam.): 5 (Herbicidal ratio of 90% or more (almost completely withered)) | c: corn, effect on crop grade (corn [6]): 0 (Herbicidal ratio of 5% or lower (almost no effect)) | Herbicidal effect grade, B: Scirpus juncoides (Scirpus juncoides): 0 (Herbicidal ratio of 5% or lower (almost no effect))

Cc1cc(C)c(C2=C(O)CC(CC(=O)Cc3ccccc3)C2=O)c(C)c1 (centres unmarked) [2-015]
d: soybean, effect on crop grade (soybean): 1 (Herbicidal ratio of 5% or higher and lower than 20%) | Herbicidal effect grade, C: Monochoria vaginalis (Monochoria vaginalis [1]): 0 (Herbicidal ratio of 5% or lower (almost no effect)) | F: Digitaria ciliaris, herbicidal effect grade (Digitaria ciliaris): 3 (Herbicidal ratio of 40% or higher and lower than 70%) | g: rapeseed, effect on crop grade (rapeseed): 0 (Herbicidal ratio of 5% or lower (almost no effect)) | H: Echinochloa crus-galli var. crus-galli, herbicidal effect grade [2]: 1 (Herbicidal ratio of 5% or higher and lower than 20%) | b: directly sowed rice plant, effect on crop grade (rice plant): 5 (Herbicidal ratio of 90% or more (almost completely withered)) | Herbicidal effect grade, A: Echinochloa oryzacola Vasing. [3]: 0 (Herbicidal ratio of 5% or lower (almost no effect)) | L: Apera spica-venti, herbicidal effect grade (Apera spica-venti): 3 (Herbicidal ratio of 40% or higher and lower than 70%) | Herbicidal effect grade, C: Monochoria vaginalis (Monochoria vaginalis [4]): 0 (Herbicidal ratio of 5% or lower (almost no effect)) | c: corn, effect on crop grade (corn [5]): 4 (Herbicidal ratio of 70% or higher and lower than 90%) | M: Abutilon theophrasti, herbicidal effect grade (Abutilon theophrasti): 0 (Herbicidal ratio of 5% or lower (almost no effect)) | I: Avena fatua, herbicidal effect grade (Avena fatua): 0 (Herbicidal ratio of 5% or lower (almost no effect)) | O: Chenopodium album, herbicidal effect grade (Chenopodium album): 0 (Herbicidal ratio of 5% or lower (almost no effect)) | K: Lolium multiflorum Lam., herbicidal effect grade (Lolium multiflorum Lam.): 5 (Herbicidal ratio of 90% or more (almost completely withered)) | c: corn, effect on crop grade (corn [6]): 0 (Herbicidal ratio of 5% or lower (almost no effect)) | Herbicidal effect grade, B: Scirpus juncoides (Scirpus juncoides): 0 (Herbicidal ratio of 5% or lower (almost no effect))
